Assay results as given in US7482425B2, “Compositions for lipid matrix-assisted chemical ligation” (Amylin Pharmaceuticals, Inc., priority 2002, dated 2009).
Where no end group is shown, it is not given here.

Conditions: pH 7.5

For “TGRPEWIWLALGTALMGLGTLYFLVKGMGVSDPDAKK [Peptide 1, TGRPEWIWLALGTALMGLGTLYFLVKGMGVSDPDAKK]”, the solubility was “does not dissolve”.
